# Assay results from patent US11666633B2, “Long-acting peptide analogs” (The Board of Trustees of the Leland Stanford Junior …, priority 2011, dated 2023).
# *1 amine or outer side, *2 acyl side, *3 side chain or, on linkers, in order; H or OH if unused. Where no end group is shown, it is not given here. K(Palm) = CCCCCCCCCCCCCCCC(=O)NCCCC[C@H](N[*:1])C(=O)[*:2]
# Key:
# SHR rats [1] = details: unmodified ADM peptide; stated as what it normally lasts, no figure; cited from earlier work
# SHR rats [2] = test: Systolic blood pressure in conscious SHR rats (tail-cuff) after i.p. intermedin peptides; type: in vivo, rat; details: for duration of hypotensive effect in vivo: i.p.
# Source text: FIG. 1A-1C are examples of blood pressure measurements in SHR rats after treatment with a long-acting intermedin peptide (Palmitic acid-modified IMD, IMD-PA), A. 30 nmoles/kg BW; B/C, 100 nmoles/kg BW.
# FIG. 2A-2B are examples of blood pressure measurements in SHR rates after injection with a wild type intermedin peptide (IMD, 100 nmoles/kg BW). The hypotensive effects of the IMD-PA peptide lasted over five hours in vivo, whereas that of the unmodified IMD peptide lasted less than 1 hr.
# (§1) The intermedin peptides were dissolved in saline solution with 10-20% DMSO at 10 micromoles/liter, Before injection, aliquots of peptides were dissolved in PBS to a injection final volume of 100 ul. Blood pressure measurements were made in conscious SHR rats (9-16 weeks of age) pre-adapted to the measurement procedure. Indirect systolic pressure was determined by a programmable non-invasive blood pressure system using the tail-cuff method (Kent Scientific Corporation). Following attachment of the pressure transducer, rats were left undisturbed for 10 min before base-line measurements that spanned a 15-20 minute interval. Following base-line measurements, rats were injected intraperitoneally with varying doses of peptides, or saline with 10% DMSO. Blood pressure and heart rate were monitored for 20-40 min at 30-s intervals. Changes in blood pressure were calculated as the average of measurements performed within a given time interval.
# The hypotensive effects of this peptide lasted over five hours in vivo, whereas that of the unmodified IMD peptide lasted less than 1 hr. The results from control animals injected with PBS is depicted in FIG. 3, and from the unmodified peptide in FIG. 2.
# SHR rats [3] = test: Systolic blood pressure in conscious SHR rats (tail-cuff) after i.p. adrenomedullin peptides; type: in vivo, rat
# Procedure: FIG. 5A-5C show examples of systolic pressure measurement of SHR rats after an injection of a long-acting adrenomedullin peptide (Palmitic acid-conjugated ADM, ADM-PA, 100 nmoles/kg BM. The hypotensive effect of this peptide lasted over five hours in vivo. By contrast, the hypotensive effect of unmodified ADM peptide normally lasts less than 1.5 hr.
# as §1, with “Biological activity of adrenomedullin analog in vivo. The” for “The”, “adrenomedullin” for “intermedin”, “200 μl.” for “100 ul.”, “10-15” for “15-20”, “20-s” for “30-s”
# (see Roh et al. Mol Endocrinol. 2005 November; 19(11):2824-38).
# [4] = Immunoreactive ADM retained in vivo after i.p. injection, by ELISA
# [5] = target: T1, adrenomedullin receptor 1 (CLR/RAMP2) (Homo sapiens, UniProt O60895+Q16602); test: Stimulatory effect in 293T cells expressing recombinant adrenomedullin receptor 1; type: cell-based; details: 293T cells expressing CLR/RAMP2
# T1 construct: expressed in transfected cells; host or cells: 293T cells
# T1 sequence (Q16602 23-461): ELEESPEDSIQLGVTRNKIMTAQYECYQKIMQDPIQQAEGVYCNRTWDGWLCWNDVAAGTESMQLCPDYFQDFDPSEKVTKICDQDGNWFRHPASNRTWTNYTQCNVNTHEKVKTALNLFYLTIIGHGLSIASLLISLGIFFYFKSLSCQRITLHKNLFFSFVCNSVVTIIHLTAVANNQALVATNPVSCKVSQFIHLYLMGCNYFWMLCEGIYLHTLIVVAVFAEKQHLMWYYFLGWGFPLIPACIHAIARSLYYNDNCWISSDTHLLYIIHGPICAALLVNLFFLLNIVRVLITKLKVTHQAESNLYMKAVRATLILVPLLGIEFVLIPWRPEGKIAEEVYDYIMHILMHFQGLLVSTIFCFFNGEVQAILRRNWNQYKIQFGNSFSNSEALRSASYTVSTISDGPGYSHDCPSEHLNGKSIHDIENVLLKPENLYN
# T1 sequence (O60895 43-175): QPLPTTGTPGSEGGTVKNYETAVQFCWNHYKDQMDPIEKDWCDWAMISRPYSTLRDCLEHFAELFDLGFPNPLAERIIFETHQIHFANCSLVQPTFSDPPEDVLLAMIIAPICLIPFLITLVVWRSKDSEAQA
# Source text: (§2) Biological activity of adrenomedullin in vitro.
# [6] = target: T2, adrenomedullin receptor 2 (CLR/RAMP3) (Homo sapiens, UniProt O60896+Q16602); test: Stimulatory effect in 293T cells expressing recombinant adrenomedullin receptor 2; type: cell-based; details: 293T cells expressing CLR/RAMP3
# T2 construct: expressed in transfected cells; host or cells: 293T cells
# T2 sequence (Q16602 23-461): as the sequence (Q16602 23-461) above
# T2 sequence (O60896 24-148): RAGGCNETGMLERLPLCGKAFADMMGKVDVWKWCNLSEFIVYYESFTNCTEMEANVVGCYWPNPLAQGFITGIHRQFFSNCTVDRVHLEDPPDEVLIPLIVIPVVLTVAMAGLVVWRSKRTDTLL
# Source text: as §2
substance,measurement,setting,value
"ADM: wild type, unmodified adrenomedullin peptide (YRQSMNNFQGLRSFGCRFGTCTVQKLAHQIYQFTDKDKDNVAPRSKISPQGY; ends and bridges not checked; cysteine pairing not given here)",duration of hypotensive effect (normally),SHR rats [1],less than 1.5 hr
"IMD: wild type, unmodified intermedin peptide (VGCVLGTCQVQNLSHRLWQLMGPAGRQDSAPVDPSSPHSY; ends and bridges not checked; cysteine pairing not given here) [reference compound]",duration of hypotensive effect in vivo,SHR rats [2]; unmodified IMD 100 nmoles/kg BW,less than 1 hr
K(mod)GCRFGTCTVQKLAHQIYQFTDKDKDNVAPRSKISPQGY [ADM-PA],change in systolic blood pressure over time,"SHR rats [3]; SHR rats, 100 nmoles/kg body weight",significant and long lasting drop
same,duration of hypotensive effect in vivo,"SHR rats [3]; SHR rats, ADM-PA 100 nmoles/kg",over five
same,effective life in vivo compared with wild type ADM,SHR rats [3]; in vivo,significantly longer effective life
same,level of immunoreactive peptide retained in vivo compared with ADM,[4]; 12 hr after i.p. injection,significantly higher
same,half-life compared with ADM,[4]; measurement of immunoreactive ADM using ELISA,long half-life as compared to ADM
same,stimulatory effect in vitro compared with wild type ADM,[5],lower than that of the wild type ADM
same,stimulatory effect in vitro compared with wild type ADM,[6],lower than that of the wild type ADM
"K(mod)GCVLGTCQVQNLSHRLWQLMGPAGRQDSAPVDPSSPHSY ({K(Palm)}-GCVLGTCQVQNLSHRLWQLMGPAGRQDSAPVDPSSPHSY; ends and bridges not checked) [IMD-PA, long-acting intermedin peptide, palmitic acid-modified via an incorporated Lys(PAL) residue]",change in systolic blood pressure over time,SHR rats [2]; i.p. injection,significant and long lasting drop
same,duration of hypotensive effect in vivo,SHR rats [2]; IMD-PA 30 or 100 nmoles/kg BW,over five
